Measured values: ChEMBL document CHEMBL1800006, “Azaphilones and p-terphenyls from the mangrove endophytic fungus Penicillium chermesinum (ZH4-E2) isolated from the South China Sea” (J Nat Prod, 2011)

Assays:
[1] = Inhibition of alpha glucosidase by UV-[…] spectroscopy
[2] = target: Acetylcholinesterase (Electrophorus electricus, UniProt O42275); assay: Inhibition of electric eel AChE using acetylthiocholine chloride as substrate after 15 mins by Ellman's method
Acetylcholinesterase, sequence (O42275 whole entry): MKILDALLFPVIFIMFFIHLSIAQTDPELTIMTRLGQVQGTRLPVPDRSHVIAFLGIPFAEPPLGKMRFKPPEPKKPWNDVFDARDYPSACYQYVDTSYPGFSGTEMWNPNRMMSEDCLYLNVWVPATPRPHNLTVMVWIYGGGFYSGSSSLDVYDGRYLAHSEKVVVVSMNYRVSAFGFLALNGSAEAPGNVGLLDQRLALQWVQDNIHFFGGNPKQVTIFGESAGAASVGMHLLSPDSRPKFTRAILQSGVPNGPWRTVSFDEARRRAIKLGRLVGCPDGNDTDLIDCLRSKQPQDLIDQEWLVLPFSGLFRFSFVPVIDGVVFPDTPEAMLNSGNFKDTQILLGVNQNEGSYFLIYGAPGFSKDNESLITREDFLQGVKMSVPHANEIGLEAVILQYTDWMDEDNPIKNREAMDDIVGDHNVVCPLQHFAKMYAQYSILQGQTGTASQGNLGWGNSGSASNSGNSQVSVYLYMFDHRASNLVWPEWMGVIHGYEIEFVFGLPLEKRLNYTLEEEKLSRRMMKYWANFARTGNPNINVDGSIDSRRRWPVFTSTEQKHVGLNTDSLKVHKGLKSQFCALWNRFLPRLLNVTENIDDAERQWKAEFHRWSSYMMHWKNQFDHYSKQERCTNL

| Compound | IC50 [1] | IC50 [2] |
| --- | --- | --- |
| O=c1c(-c2ccc(O)cc2)coc2cc(O)cc(O)c12 [GENISTEIN] | 9.8 µM |  |
| COc1c(-c2ccc(O)cc2)cc(O)c(-c2ccc(O)cc2)c1O | 0.9 µM | > 100 µM |
| COc1c(-c2ccc(O)c(O)c2)cc(O)c2c1oc1cc(O)c(O)cc12 [6'-DESMETHYLCANDIDUSIN B] | > 100 µM | 5.2 µM |
| CC[C@H](C)C(=O)[C@H]1C(=O)O[C@@]2(C)C(=O)C=C3C=C(C)O[C@H](O)[C@H]3[C@H]12 [CHERMESINONE C] | > 100 µM | > 100 µM |
| COc1c(-c2ccc(O)c(O)c2)cc(O)c(-c2ccc(O)c(O)c2)c1O | 2.9 µM | > 100 µM |
| CC[C@H](C)C(=O)[C@H]1C(=O)O[C@@]2(C)C(=O)C=C3C=C(C)OC=C3[C@H]12 [CHERMESINONE B] | > 100 µM | > 100 µM |
| COc1c(-c2ccc(O)cc2)cc(O)c(-c2ccc(O)c(O)c2)c1O | 4.9 µM | > 100 µM |
| CC[C@H](C)C(=O)C[C@H]1C2=COC(C)=CC2=CC(=O)[C@]1(C)O [CHERMESINONE A] | 24.5 µM | > 100 µM |
| COc1c(-c2ccc(O)cc2)cc(O)c2c1oc1cc(O)c(O)cc12 | > 100 µM | 7.8 µM |
